Patent US6160004A, “C-10 carbon-substituted artemisinin-like trioxane compounds having antimalarial, antiproliferative and antitumor activities” (priority 1998, dated 2000)
Where two headings read alike, the source gives them in different places.

How the values were obtained:
SNB-19 = experiment: cells; type: cell-based; settings: Homo sapiens, SNB-19, CNS cancer, 48 h
U251 = experiment: cells; type: cell-based; settings: Homo sapiens, U-251, U251, CNS cancer, 48 h
MDA-N = experiment: NCI 60 cell line panel screening assay (SRB), MDA-N; type: cell-based; settings: Homo sapiens, breast cancer, 48 h, read-out: Log10 GI50 (converted)
NCI-H23 = experiment: cells; type: cell-based; settings: Homo sapiens; NCI-H23, non-small cell lung cancer, 48 h; read-out: Log10 GI50 (converted)
UACC-62 = experiment: cells; type: cell-based; settings: Homo sapiens
TK-10 = experiment: cells; type: cell-based; settings: Homo sapiens, TK-10, renal cancer, 48 h
OVCAR-3 = experiment: cells; type: cell-based; settings: Homo sapiens
MCF7 = experiment: cells; type: cell-based; settings: Homo sapiens; MCF7, breast cancer, 48 h; read-out: Log10 LC50 (converted)
UACC-257 = experiment: cells; type: cell-based; settings: Homo sapiens, UACC-257, 48 h
SF-268 = experiment: cells; type: cell-based; settings: Homo sapiens, SF-268, CNS cancer, 48 h
NCI-H322M = experiment: cells; settings: Homo sapiens, 48 h
SR = experiment: cells; type: cell-based; settings: Homo sapiens, leukemia, 48 h
K-562 = experiment: cells; type: cell-based; settings: Homo sapiens
NCI-H226 = experiment: cells; type: cell-based; settings: Homo sapiens, NCI-H226, 48 h, read-out: Log10 GI50 (converted)
SK-OV-3 = experiment: cells; type: cell-based; settings: Homo sapiens
BT-549 = experiment: cells; type: cell-based; settings: Homo sapiens, BT-549, breast cancer, 48 h
A498 = experiment: cells; type: cell-based; settings: Homo sapiens, A498, renal cancer, 48 h
CAKI-1 = experiment: NCI 60 cell line panel screening assay (SRB), CAKI-1; type: cell-based; settings: Homo sapiens
HOP-92 = experiment: cells; type: cell-based; settings: Homo sapiens, HOP-92, non-small cell lung cancer, 48 h
T-47D = experiment: NCI 60 cell line panel screening assay (SRB), T-47D; settings: Homo sapiens, T47D, 48 h
SN12C = experiment: NCI 60 cell line panel screening assay (SRB), SN12C; type: cell-based; settings: Homo sapiens, renal cancer, 48 h
MOLT-4 [1] = settings: MOLT-4, FIG. 6
RPMI-8226 = experiment: NCI 60 cell line panel screening assay (SRB), RPMI-8226; type: cell-based; settings: Homo sapiens
HT29 = experiment: cells; type: cell-based; settings: Homo sapiens, HT-29, HT29, colon cancer, 48 h
M14 = experiment: NCI 60 cell line panel screening assay (SRB), M14; settings: Homo sapiens, M14, 48 h
PC-3 = experiment: cells; type: cell-based; settings: Homo sapiens, PC-3, prostate cancer, 48 h
CCRF-CEM = experiment: cells; type: cell-based; settings: Homo sapiens, 48 h
DU-145 = experiment: cells; type: cell-based; settings: Homo sapiens, DU-145, 48 h
MOLT-4 [2] = experiment: cells; settings: Homo sapiens
60 cell line panel = experiment: NCI 60 cell line panel, whole panel
[3] = read-out: Log10 GI50 (converted)
[4] = read-out: Log10 LC50 (converted)

## CC1CCC2C(C)C(CC(=O)c3cccc(C(=O)CC4OC5OC6(C)CCC7C(C)CCC(C4C)C57OO6)c3)OC3OC4(C)CCC1C32OO4 (stereo not shown) [Dimer 39]
SNB-19; [3]
  GI50: > 100 µM
SNB-19; [4]
  CC50: > 100 µM
SNB-19; read-out: Log10 TGI
  IC (TGI): > 100 µM
U251; [3]
  GI50: > 100 µM
U251; [4]
  CC50: > 100 µM
MDA-N
  GI50: > 100 µM
NCI-H23
  GI50: > 100 µM
UACC-62; UACC-62, 48 h, read-out: Log10 TGI
  IC (TGI): > 100 µM
UACC-62; UACC-62, melanoma, 48 h, read-out: Log10 GI50 (converted)
  GI50: > 100 µM
UACC-62; UACC-62, melanoma, 48 h, read-out: Log10 LC50 (converted)
  LC50: > 100 µM
TK-10; [3]
  GI50: > 100 µM
TK-10; [4]
  CC50: > 100 µM
TK-10; read-out: Log10 TGI
  IC (TGI): > 100 µM
OVCAR-3; OVCAR-3, 48 h, read-out: Log10 TGI
  IC (TGI): > 100 µM
OVCAR-3; OVCAR-3, ovarian cancer, 48 h, read-out: Log10 GI50 (converted)
  GI50: > 100 µM
OVCAR-3; OVCAR-3, ovarian cancer, 48 h, read-out: Log10 LC50 (converted)
  CC50: > 100 µM
MCF7
  CC50: > 100 µM
UACC-257; read-out: Log10 TGI
  IC (TGI): > 100 µM
UACC-257; [3]
  GI50: > 100 µM
UACC-257; [4]
  CC50: > 100 µM
SF-268; [3]
  GI50: > 100 µM
SF-268; [4]
  CC50: > 100 µM
NCI-H322M; [3]
  GI50: > 100 µM
NCI-H322M; [4]
  CC50: > 100 µM
NCI-H322M; read-out: Log10 TGI
  IC (TGI): > 100 µM
SR; [3]
  GI50: > 100 µM
SR; [4]
  CC50: > 100 µM
SR; read-out: Log10 TGI
  IC (TGI): > 100 µM
K-562; K562, 48 h, read-out: Log10 LC50 (converted)
  CC50: > 100 µM
K-562; K562, K-562, leukemia, 48 h, read-out: Log10 GI50 (converted)
  GI50: > 100 µM
NCI-H226
  GI50: 29.5 µM
SK-OV-3; SK-OV-3, 48 h, read-out: Log10 TGI
  IC (TGI): > 100 µM
SK-OV-3; SK-OV-3, ovarian cancer, 48 h, read-out: Log10 GI50 (converted)
  GI50: > 100 µM
SK-OV-3; SK-OV-3, ovarian cancer, 48 h, read-out: Log10 LC50 (converted)
  CC50: > 100 µM
BT-549; [3]
  GI50: > 100 µM
BT-549; [4]
  CC50: > 100 µM
A498; [4]
  CC50: > 100 µM
A498; read-out: Log10 TGI
  IC (TGI): > 100 µM
CAKI-1; CAKI-1, 48 h, read-out: Log10 LC50 (converted)
  CC50: > 100 µM
CAKI-1; CAKI-1, renal cancer, 48 h, read-out: Log10 GI50 (converted)
  GI50: > 100 µM
CAKI-1; CAKI-1, renal cancer, 48 h, read-out: Log10 TGI (converted)
  IC (TGI): > 100 µM
HOP-92; [3]
  GI50: > 100 µM
HOP-92; [4]
  CC50: > 100 µM
T-47D; [3]
  GI50: > 100 µM
T-47D; [4]
  CC50: > 100 µM
SN12C; [3]
  GI50: > 100 µM
SN12C; [4]
  CC50: > 100 µM
SN12C; read-out: Log10 TGI
  IC (TGI): > 100 µM
MOLT-4 [1]
  concentration for cytostasis (PG 0): greater than 10^-4 M
RPMI-8226; RPMI-8226, 48 h, read-out: Log10 LC50 (converted)
  CC50: > 100 µM
RPMI-8226; RPMI-8226, leukemia, 48 h, read-out: Log10 GI50 (converted)
  GI50: > 100 µM
RPMI-8226; RPMI-8226, leukemia, 48 h, read-out: Log10 TGI
  IC (TGI): > 100 µM
HT29; [3]
  GI50: > 100 µM
HT29; [4]
  CC50: > 100 µM
M14; [3]
  GI50: > 100 µM
M14; [4]
  CC50: > 100 µM
M14; read-out: Log10 TGI
  IC (TGI): > 100 µM
PC-3; [3]
  GI50: > 100 µM
PC-3; [4]
  LC50: > 100 µM
CCRF-CEM; [3]
  GI50: > 100 µM
CCRF-CEM; [4]
  CC50: > 100 µM
CCRF-CEM; leukemia, read-out: Log10 TGI
  IC (TGI): > 100 µM
DU-145; [3]
  GI50: > 100 µM
DU-145; [4]
  CC50: > 100 µM
DU-145; read-out: Log10 TGI
  IC (TGI): > 100 µM
MOLT-4 [2]; MOLT-4, 48 h, read-out: Log10 LC50 (converted)
  CC50: > 100 µM
MOLT-4 [2]; MOLT-4, 48 h, read-out: Log10 TGI
  IC (TGI): > 100 µM
MOLT-4 [2]; MOLT-4, read-out: concentration for cytotoxicity (PG -50)
  CC50: > 100 µM
MOLT-4 [2]; MOLT-4, read-out: concentration for primary growth inhibition (PG +50)
  IC50: > 100 µM
60 cell line panel; 60 cell, read-out: MG MID of Log10 TGI
  IC (TGI): 100 µM
60 cell line panel; Homo sapiens, 60 cell, read-out: MG MID of Log10 LC50 (converted)
  CC50: 100 µM
60 cell line panel; panel
  Delta of Log10 TGI: 0.00
  Range of Log10 TGI: 0.00
